This note sets out measurements from ChEMBL document CHEMBL1144972, “Benzo[f]naphtyridones: a new family of topical antibacterial agents active on multi-resistant Gram-positive pathogens” (2003).

Converted amounts (≈) assume the structure as drawn.

What all share (format): functional
Assay [1] concerns Staphylococcus aureus. Put plainly: Minimum inhibitory concentration against Staphylococcus aureus RN4220.
The test system of the next assay is Streptococcus pyogenes. Put plainly: Minimum inhibitory concentration against Streptococcus pyogenes Dig 7.
Assay [2] has as its system Staphylococcus aureus. Briefly: Minimum inhibitory concentration against Staphylococcus aureus AS5155.

One may read the MIC as the smallest concentration in the dilution series that meets the test's criterion for growth inhibition. Lower therefore signals inhibition by little substance. On to `Cc1ccc(N2CCN(c3cc4c(ncc5c4c(=O)c(C(=O)O)cn5C)c(F)c3Cl)CC2)cc1F`, for which the values for the MIC against Staphylococcus aureus [1], in the assay on Streptococcus pyogenes and in the assay with Staphylococcus aureus [2] were 1 µg/mL (≈ 2 µM), 2 µg/mL (≈ 4.01 µM) and 1 µg/mL (≈ 2 µM), respectively.
Regarding `Cc1ccc(N2CCN(c3ccc4c(ncc5c4c(=O)c(C(=O)O)cn5C)c3F)CC2)cc1F`, the MIC with Staphylococcus aureus [1] was 4 µg/mL (≈ 8.61 µM); in the assay on Streptococcus pyogenes it was 16 µg/mL (≈ 34.4 µM); against Staphylococcus aureus [2], 2 µg/mL (≈ 4.31 µM).
Turning to `CCn1cc(C(=O)O)c(=O)c2cc(F)c(N3CCN(C)CC3)cc21` [PEFLOXACIN], the MIC against Staphylococcus aureus [1] worked out at 0.5 µg/mL (≈ 1.5 µM); in the assay with Streptococcus pyogenes it was 8 µg/mL (≈ 24 µM); in the assay with Staphylococcus aureus [2] it was 64 µg/mL (≈ 192 µM).
Regarding `Cn1cc(C(=O)O)c(=O)c2c3cc(N4C[C@@]5(C)C[C@@H]4CC(C)(C)C5)c(F)cc3ncc21`, the MIC was 2 µg/mL (≈ 4.72 µM) in the assay with Staphylococcus aureus [1], 4 µg/mL (≈ 9.45 µM) with Streptococcus pyogenes and 2 µg/mL (≈ 4.72 µM) with Staphylococcus aureus [2].
In the case of `Cn1cc(C(=O)O)c(=O)c2c3cc(N4CCN(c5ccc(Cl)c(F)c5)CC4)c(Cl)c(F)c3ncc21`, the MIC against Staphylococcus aureus [1] is 2 µg/mL (≈ 3.85 µM); against Streptococcus pyogenes, 16 µg/mL (≈ 30.8 µM); in the assay with Staphylococcus aureus [2] it was 1 µg/mL (≈ 1.93 µM).
For `C[N+](C)(C)CCO.Cn1cc(C(=O)[O-])c(=O)c2cc3cc(F)c(N4CCN(c5ccc(F)cc5)CC4)cc3nc21`, the figures for the MIC in the assay with Staphylococcus aureus [1], against Streptococcus pyogenes and with Staphylococcus aureus [2] were 0.25 µg/mL, 0.5 µg/mL and 2 µg/mL, respectively.
The like results for `Cn1cc(C(=O)O)c(=O)c2c3ccc(F)c(N4CCN(c5cccc(C(F)(F)F)c5)CC4)c3ncc21` were, in that order, 2 µg/mL (≈ 4 µM), 16 µg/mL (≈ 32 µM) and 4 µg/mL (≈ 7.99 µM).
As to `Cn1cc(C(=O)O)c(=O)c2c3cc(F)c(N4CCCC(C)(C)C4)cc3ncc21`, the MIC in the assay on Staphylococcus aureus [1], in the assay on Streptococcus pyogenes and against Staphylococcus aureus [2] was 4 µg/mL (≈ 10.4 µM) in each case.
Consider `C/C(=C\C(=O)OCCCCCCCCC(=O)O)C[C@@H]1OC[C@H](C[C@@H]2O[C@H]2[C@@H](C)[C@H](C)O)[C@@H](O)[C@H]1O` [MUPIROCIN], for which the results for the MIC in the assay on Staphylococcus aureus [1], against Streptococcus pyogenes and with Staphylococcus aureus [2] were 0.5 µg/mL (≈ 0.999 µM), 0.12 µg/mL (≈ 0.24 µM) and 1 µg/mL (≈ 2 µM), respectively.
